Data taken from paper PMC6611044, “Pharmacokinetic analysis of new synthetic antimalarial N-251” (Tropical Medicine and Health, 2019).
Converted amounts (≈) assume the structure as drawn. “And” between values parts separate entries of the source, which are not always exact repeats. Identical values can stand only once. “Also recorded” adds a separate entry of the source. Like-named read-outs stand apart in the source and are kept apart here.

Experiments:
[1] = PK analysis after p.o. administration of N-251 in fasted mice; assay type: in vivo; details: for Cmax / Tmax / AUC: male, ICR, mouse, plasma, po; for AUC: 0 to infinity
Experimental: To analyze the absorption kinetics of N-251, it was orally administered to fasted mice with dose of 210, 100, 68, 50, and 30 mg/kg. Blood sample was collected at 15 and 30 min as well as 1, 1.5, 2, 3, 4, and 6 h post-dose. Data were expressed as the mean (n = 6) ± SD. AUC and MRT after p.o. administration in fasting mice were calculated based on the trapezoidal rule. F was calculated with an AUC of 10 mg/kg of i.v. dose. The highest observed concentration was used as Cmax, and the time for Cmax was defined as Tmax.

[2] = Effects of food and parasite infection on absorption of N-251 after p.o. administration; assay type: in vivo, mice; details: p.o. 68 mg/kg; for F: vs AUC of 10 mg/kg i.v.
Experimental: Normal-fasted and normal-fed mice were used for the analysis. Parasite-infected mice were prepared before the analysis, and a 0.61% infection rate in P. berghei-infected mice under fasting condition was used. The single p.o. dose of N-251 was 68 mg/kg. Blood sample was collected 15, 30, and 45 min as well as 1, 1.5, 2, 3, 4, and 6 h post-dose. Data were expressed as mean with the bar indicating the SD value.

[3] = Multiple p.o. dosing plasma concentration-time profile and simulation; assay type: in vivo, mice
Experimental: N-251 was administered p.o. at a dose of 68 mg/kg every 8 h for 2 days in normal-fed mice. Blood sample was collected at 15, 30, and 45 min as well as 1, 1.5, 2, 3, 4, 6, 8, 10, 16, 18, 24, 26, 32, 34, 40, 42, 44, 46, and 48 h after administration. Data were expressed as mean (n = 6) with the bar indicating the SD value. Simulation of plasma concentration-time profile after multiple dosing was performed by utilizing the parameters obtained via fitting analysis for the plasma concentration-time curve after a single p.o. dose of N-251 based on the two-compartment model with the first-order absorption process. The equation and parameters used for the simulation were as follows: Cp=X⋅EXP−ka⋅t−tlag+Y⋅EXP−α⋅t−tlag+Z⋅EXP−β⋅t−tlag,
where ka and tlag are absorption rate constant and lag time, respectively, and X, Y, Z, α, and β are the hybrid parameters. Their values used for simulation were as follows: X = 8422 ng/mL/kg, ka = 0.845 h^−1, Y = − 8419 ng/mL/kg, α = 1.09 h^−[…], Z = 5.29 ng/mL/kg, β = 1.06 h^−1, and lag time = 0.330.

Solubility = assay type: physicochemical; details: water
[4] = Multiple p.o. dosing plasma concentration-time profile and simulation; assay type: in vivo, mice; details: 68 mg/kg three times a day for 3 days
[5] = test system: P. falciparum (FCR-3 strain); set-up: method as in PMID 21501696; details: P. falciparum FCR-3 strain in vitro, cited from earlier work
P. berghei = test system: P. berghei; set-up: method as in PMID 11428929; details: 4-day suppressive test, cited from earlier work
rodent malaria parasites = test system: rodent malaria parasites; set-up: method as in PMID 21501696; details: 68 mg/kg three times a day for 3 days, cited from earlier work
[6] = cited from earlier work
[7] = ICR, mouse, plasma, po, 68 mg/kg, normal-fed mice
[8] = fit of single p.o. dose, two-compartment model with first-order absorption

SMILES: OCCCCCCC1COOC2(CCCCCCCCCCC2)OOC1 [N-251, 6-(1,2,6,7-tetraoxaspiro [7.11]nonadec-4-yl)hexan-1-ol]
- Cmax ([1]; p.o. 100 mg/kg): 2460 ± 802 ng/mL
- Tmax ([1]; p.o. 100 mg/kg): 2 h
- AUC ([1]; p.o. 100 mg/kg): 5890 ng·h/mL
- Cmax ([1]; p.o. 210 mg/kg): 4890 ± 1190 ng/mL
- Tmax ([1]; p.o. 210 mg/kg): 2 h
- AUC ([1]; p.o. 210 mg/kg): 15200 ng·h/mL
- MRTpo ([1]; p.o. 30 mg/kg): 2.45 h
- F ([1]; p.o. 30 mg/kg, vs AUC of 10 mg/kg i.v.): 0.2156
- MRTpo ([1]; p.o. 50 mg/kg): 2.49 h
- F ([1]; p.o. 50 mg/kg, vs AUC of 10 mg/kg i.v.): 0.2110
- MRTpo ([1]; p.o. 68 mg/kg): 2.46 h
- F ([1]; p.o. 68 mg/kg, vs AUC of 10 mg/kg i.v.): 0.2277
- MRTpo ([1]; p.o. 100 mg/kg): 2.46 h
- F ([1]; p.o. 100 mg/kg, vs AUC of 10 mg/kg i.v.): 0.2419
- MRTpo ([1]; p.o. 210 mg/kg): 2.74 h
- F ([1]; p.o. 210 mg/kg, vs AUC of 10 mg/kg i.v.): 0.2982
- F ([1]; p.o. between 30 and 100 mg/kg): approximately 0.22
- AUC ([2]; ICR, mouse, plasma, po, 68 mg/kg, P. berghei-infected (0.61%) fasted mice): 3270 ng·h/mL
- Cmax ([2]; ICR, mouse, plasma, po, 68 mg/kg, P. berghei-infected (0.61%) fasted mice, read-out: Cmax): 1770 ± 1650 ng/mL
- Cmax ([2]; ICR, mouse, plasma, po, 68 mg/kg, normal-fasted mice (control), read-out: Cmax): 1680 ng/mL
- AUC [2, 7]: 2280 ng·h/mL
- Tmax [2, 7]: 1.5 h
- Cmax ([2]; ICR, mouse, plasma, po, 68 mg/kg, normal-fed mice, read-out: Cmax): 953 ng/mL
- AUC in fed mice relative to fasted mice [2]: about 60%
- Cmax in fed mice relative to normal-fasted mice [2]: 57%
- F ([2]; P. berghei-infected (0.61%) fasted mice): 0.1978
- MRTpo ([2]; normal-fed mice): 3.01 h
- F ([2]; normal-fed mice): 0.1379
- Cmax ([2]; normal-fed mice, 68 mg/kg): 950 ng/mL and 952.50 ± 332.49 ng/mL
- minimal plasma concentration (Cmin) ([3]; 68 mg/kg p.o. every 8 h for 2 days, normal-fed mice, except 8 h after the first administration): greater than 10 ng/mL
- accumulation on multiple oral dosing ([3]; 68 mg/kg p.o. three times per day for 2 days, normal-fed mice): did not accumulate; also recorded: does not accumulate
- X (hybrid parameter used for simulation) [3, 8]: 8422 ng/mL/kg
- Z (hybrid parameter used for simulation) [3, 8]: 5.29 ng/mL/kg
- ka (absorption rate constant) [3, 8]: 0.845 h⁻¹
- lag time [3, 8]: 0.330
- α (hybrid parameter used for simulation) [3, 8]: 1.09 ng/h/mL/kg
- β (hybrid parameter used for simulation) [3, 8]: 1.06 h⁻¹
- solubility (Solubility): 0.007 mg/mL (≈ 0.0188 mM)
- plasma concentration maintained for 72 h [4]: more than 10 ng/mL
- EC50 ([5]; equivalent of 8.6 ng/mL, read-out: EC50): 0.023 µM
- EC50 [5]: 8.6 ng/mL
- ED50 (P. berghei; i.v.): 22 mg/kg
- ED50 (P. berghei; p.o.): 15 mg/kg
- period without parasites after the last administration (rodent malaria parasites; infected mice): 2 months
- time after treatment at which parasites were not observed in the bloodstream (rodent malaria parasites; infected mice): 36 h
- time after which malaria parasites decreased (rodent malaria parasites; infected mice): 16 h
- cure of infected mice (rodent malaria parasites): completely cured without recrudescence
- solubility in Cremophor EL ([6]; Cremophor EL): 65 mg/mL (≈ 174 mM)
- solubility in olive oil ([6]; olive oil): 92 mg/mL (≈ 247 mM)
